From patent US12569485B2, “SMARCA inhibitors and uses thereof” (Kymera Therapeutics, Inc., priority 2019, dated 2026)
pIC50: −log10 of the molar value. Counter-ions that a name gives are not always drawn.

Biological target: T1, SMARCA2 (Homo sapiens, UniProt P51531)
T1 construct: fused on or other part: His tag (6His), detected by the anti-6His terbium cryptate antibody
Assay: SMARCA2 HTRF assay
Settings: His-tagged SMARCA2-17, average, read-out: SMARCA2 binding Human HTRF: Average IC50
Experimental: Sample handling: 1× Epigenetics Buffer is prepared according to manufacturer's instructions. 32 nM SMARCA2-17 (4×) is prepared with Epigenetics Buffer. 4×Tb working solution is prepared by diluting Mab Anti 6His Tb cryptate Gold in PPI-Terbium Detection buffer to 0.21 ng/μ1 (100× dilution from stock). SMARCA2-mAb-Tb working solution is prepared by mixing equal volume of 32 nM SMARCA2 with Tb working solution. A half-hour timer is started. In a 96-well plate, serial dilution of compound DMSO solutions is prepared. […] of Epigenetics Buffer is placed to a second 96-well plate. 1 μl of the 100× compound DMSO solution is transferred to the second 96-well plate to make 4× compound working solution. 5 μl/well of 4× compound working solution is added into the 384-well plate and mixed well. […] of SMARCA2-mAb-Tb working solution is added into 384-well plate. The above mixtures are incubated at room temperature for 30 min. Data is collected and processed on EnVision. 520 nm/495 nm readouts ratio are calculated from raw data.
The letter codes for SMARCA2 average IC50 (μM) include: A (<1 μM), B (1-50 μM), C (51-200 μM), and D (>200 μM).

T1 sequence (P51531 whole entry, the tested form may be a part): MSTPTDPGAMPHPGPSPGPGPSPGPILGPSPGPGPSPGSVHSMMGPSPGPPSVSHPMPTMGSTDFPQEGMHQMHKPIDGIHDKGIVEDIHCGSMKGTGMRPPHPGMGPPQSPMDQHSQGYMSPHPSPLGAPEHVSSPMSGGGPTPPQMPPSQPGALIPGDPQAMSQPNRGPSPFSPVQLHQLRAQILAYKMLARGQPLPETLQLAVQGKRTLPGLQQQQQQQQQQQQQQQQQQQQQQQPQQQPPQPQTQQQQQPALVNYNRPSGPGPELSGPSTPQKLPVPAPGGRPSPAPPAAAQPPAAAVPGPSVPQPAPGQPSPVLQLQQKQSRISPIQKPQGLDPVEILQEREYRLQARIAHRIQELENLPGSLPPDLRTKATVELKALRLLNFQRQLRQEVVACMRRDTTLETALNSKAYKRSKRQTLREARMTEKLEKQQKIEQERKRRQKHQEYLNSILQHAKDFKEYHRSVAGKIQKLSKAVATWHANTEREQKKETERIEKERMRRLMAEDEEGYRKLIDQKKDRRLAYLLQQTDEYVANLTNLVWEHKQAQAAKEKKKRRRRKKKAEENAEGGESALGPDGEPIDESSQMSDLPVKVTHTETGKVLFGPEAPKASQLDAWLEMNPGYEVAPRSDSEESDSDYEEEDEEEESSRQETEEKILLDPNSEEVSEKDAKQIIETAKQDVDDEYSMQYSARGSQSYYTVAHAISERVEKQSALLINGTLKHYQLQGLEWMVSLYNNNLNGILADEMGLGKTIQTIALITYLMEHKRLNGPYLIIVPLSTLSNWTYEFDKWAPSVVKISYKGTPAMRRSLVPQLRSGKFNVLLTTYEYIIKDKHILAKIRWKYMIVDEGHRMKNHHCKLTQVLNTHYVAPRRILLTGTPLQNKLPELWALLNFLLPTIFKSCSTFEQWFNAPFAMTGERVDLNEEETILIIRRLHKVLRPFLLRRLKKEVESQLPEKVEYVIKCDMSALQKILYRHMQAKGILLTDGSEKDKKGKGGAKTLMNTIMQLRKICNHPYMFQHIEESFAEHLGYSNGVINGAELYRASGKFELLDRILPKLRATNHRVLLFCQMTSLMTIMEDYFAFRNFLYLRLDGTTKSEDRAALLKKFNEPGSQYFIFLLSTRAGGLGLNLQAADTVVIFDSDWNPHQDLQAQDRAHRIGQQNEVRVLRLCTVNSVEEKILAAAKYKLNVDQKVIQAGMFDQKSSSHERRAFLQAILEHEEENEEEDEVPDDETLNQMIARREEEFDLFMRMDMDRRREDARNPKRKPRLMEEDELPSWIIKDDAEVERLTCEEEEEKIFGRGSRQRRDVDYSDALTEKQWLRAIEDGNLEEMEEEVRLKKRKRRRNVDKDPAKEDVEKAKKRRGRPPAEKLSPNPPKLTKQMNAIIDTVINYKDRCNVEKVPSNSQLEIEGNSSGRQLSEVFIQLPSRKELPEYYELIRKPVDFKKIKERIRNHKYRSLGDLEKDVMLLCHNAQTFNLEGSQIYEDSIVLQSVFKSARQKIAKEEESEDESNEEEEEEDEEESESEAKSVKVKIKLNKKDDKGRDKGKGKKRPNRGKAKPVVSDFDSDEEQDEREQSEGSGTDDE

Structure (SMILES)	pIC50
O=c1[nH]c2nnc(-c3ccccc3O)cc2c2c1CCNC2 [I-1, 9-(2-hydroxyphenyl)-1,2,3,4-tetrahydropyridazino[3,4-c][2,6]naphthyridin-5(6H)-one hydrochloride]	4.30 to 6.00
O=c1[nH]c2nnc(-c3ccccc3O)cc2c2c1CNCC2 [I-2, 2-(2-hydroxyphenyl)-7,8,9,10-tetrahydro-5H-pyridazino[3,4-c][2,7]naphthyridin-6-one]	4.30 to 6.00
O=C1Nc2nnc(-c3ccccc3O)cc2C12CCNCC2 [I-7, 3-(2-hydroxyphenyl)spiro[7H-pyrrolo[2,3-c]pyridazine-5,4′-piperidine]-6-one]	< 3.70
O=C1Nc2nnc(-c3ccccc3O)cc2C12CCN(c1ccccc1)CC2 [I-64, 3-(2-hydroxyphenyl)-1′-phenyl-spiro [7H-pyrrolo[2,3-c]pyridazine-5,4′-piperidine]-6-one]	4.30 to 6.00
Nc1ncc(N2C(=O)CCC2=O)cc1N1CCNCC1 [I-70, 1-(6-amino-5-(piperazin-1-yl)pyridin-3-yl)pyrrolidine-2,5-dione]	< 3.70
Nc1ncc(N2CCNC2=O)cc1N1CCNCC1 [I-71, 1-(6-amino-5-piperazin-1-yl-3-pyridyl)imidazolidin-2-one]	< 3.70
Nc1ncc(N2CCNCC2=O)cc1N1CCNCC1 [I-73, 1-(6-amino-5-piperazin-1-yl-3-pyridyl)piperazin-2-one]	< 3.70
Nc1ncc2c(Cl)cccc2c1N1CCNCC1 [I-74, 8-chloro-4-(piperazin-1-yl)isoquinolin-3-amine]	< 3.70
COCCNc1nnc(-c2ccccc2O)cc1N1CCNCC1 [I-101, 2-[6-(2-methoxyethylamino)-5-piperazin-1-yl-pyridazin-3-yl]phenol]	< 3.70
CC(=O)Nc1nnc(-c2ccccc2O)cc1N1CCNCC1 [I-102, N-[6-(2-hydroxyphenyl)-4-piperazin-1-yl-pyridazin-3-yl]acetamide]	3.70 to 4.29
Oc1ccccc1-c1cc2c(nn1)NC[C@@H]1CN(c3ncccn3)CCN21 [I-106, (R)-2-(8-(pyrimidin-2-yl)-6,6a,7,8,9,10-hexahydro-5H-pyrazino[1′,2′:4,5]pyrazino[2,3-c]pyridazin-2-yl)phenol]	> 6.00
Oc1ccccc1-c1cc2c(nn1)NC[C@H]1CN(c3ncccn3)CCN21 [I-107, (S)-2-(8-(pyrimidin-2-yl)-6,6a,7,8,9,10-hexahydro-5H-pyrazino[1′,2′:4,5]pyrazino[2,3-c]pyridazin-2-yl)phenol]	> 6.00
Oc1ccccc1-c1cc2c(nn1)NC[C@H]1CNCCN21 [I-108, (R)-2-(6,6a,7,8,9,10-hexahydro-5H-pyrazino[1′,2′:4,5]pyrazino[2,3-c]pyridazin-2-yl)phenol]	4.30 to 6.00
C[C@@H]1c2c([nH]c3nnc(-c4ccccc4O)cc23)CCN1c1nccc(C2CCNCC2)n1 [I-110, (R)-2-(5-methyl-6-(4-(piperidin-4-yl)pyrimidin-2-yl)-6,7,8,9-tetrahydro-5H-pyrido[3′,4′:4,5]pyrrolo[2,3-c]pyridazin-3-yl)phenol]	> 6.00
C[C@H]1c2c([nH]c3nnc(-c4ccccc4O)cc23)CCN1c1nccc(C2CCNCC2)n1 [I-111, (S)-2-(5-methyl-6-(4-(piperidin-4-yl)pyrimidin-2-yl)-6,7,8,9-tetrahydro-5H-pyrido[3′,4′:4,5]pyrrolo[2,3-c]pyridazin-3-yl)phenol]	> 6.00
C[C@@H]1c2c([nH]c3nnc(-c4ccccc4O)cc23)CCN1c1ncc(C2CCNCC2)cn1 [I-112, (R)-2-(5-methyl-6-(5-(piperidin-4-yl)pyrimidin-2-yl)-6,7,8,9-tetrahydro-5H-pyrido[3′,4′:4,5]pyrrolo[2,3-c]pyridazin-3-yl)phenol]	> 6.00

Structure (SMILES)	pIC50
C[C@H]1c2c([nH]c3nnc(-c4ccccc4O)cc23)CCN1c1ncc(C2CCNCC2)cn1 [I-113, (S)-2-(5-methyl-6-(5-(piperidin-4-yl)pyrimidin-2-yl)-6,7,8,9-tetrahydro-5H-pyrido[3′,4′:4,5]pyrrolo[2,3-c]pyridazin-3-yl)phenol]	> 6.00
Oc1ccccc1-c1cc2c(nn1)[nH]c1ccc(C3CCNCC3)cc12 [I-114, 2-(6-(piperidin-4-yl)-9H-pyridazino[3,4-b]indol-3-yl)phenol]	> 6.00
C[C@H]1NCCc2[nH]c3nnc(-c4ccccc4O)cc3c21 [I-115, (R)-2-(5-methyl-6,7,8,9-tetrahydro-5H-pyrido[3′,4′:4,5]pyrrolo[2,3-c]pyridazin-3-yl)phenol]	3.70 to 4.29
C[C@@H]1c2c([nH]c3nnc(-c4ccccc4O)cc23)CCN1c1ncccn1 [I-116, (R)-2-(5-methyl-6-(pyrimidin-2-yl)-6,7,8,9-tetrahydro-5H-pyrido[3′,4′:4,5]pyrrolo[2,3-c]pyridazin-3-yl)phenol]	> 6.00
C[C@@H]1NCCc2[nH]c3nnc(-c4ccccc4O)cc3c21 [I-117]	3.70 to 4.29
C[C@H]1c2c([nH]c3nnc(-c4ccccc4O)cc23)CCN1c1ncccn1 [I-118, (S)-2-(5-methyl-6-(pyrimidin-2-yl)-6,7,8,9-tetrahydro-5H-pyrido[3′,4′:4,5]pyrrolo[2,3-c]pyridazin-3-yl)phenol]	> 6.00
O=C1NCCc2[nH]c3nnc(-c4ccccc4O)cc3c21 [I-119, 3-(2-hydroxyphenyl)-6,7,8,9-tetrahydro-5H-pyrido[3′,4′:4,5]pyrrolo[2,3-c]pyridazin-5-one]	4.30 to 6.00
Oc1ccccc1-c1cc2c(nn1)NCC1CNCCN21 (centres unmarked) [I-120, 2-(6,6a,7,8,9,10-hexahydro-5H-pyrazino[1′,2′:4,5]pyrazino[2,3-c]pyridazin-2-yl)phenol 2,2,2-trifluoroacetate]	4.30 to 6.00
O=C1Nc2nnc(-c3ccccc3O)cc2C12CCN(Cc1ccccc1)CC2 [I-121, 1′-benzyl-3-(2-hydroxyphenyl)spiro[7H-pyrrolo[2,3-c]pyridazine-5,4′-piperidine]-6-one]	4.30 to 6.00
Oc1ccccc1-c1cc2c(cc3n2CCN(c2ncccn2)C3)nn1 [I-123, 2-(8-(pyrimidin-2-yl)-6,7,8,9-tetrahydropyrazino[1′,2′:1,5]pyrrolo[3,2-c]pyridazin-3-yl)phenol]	4.30 to 6.00
CC(C)(C)OC(=O)N1CC=C(c2cc3c(=O)[nH]c4nnc(-c5ccccc5O)cc4n3c2)CC1 [I-124, tert-butyl 4-(2-(2-hydroxyphenyl)-6-oxo-5,6-dihydropyrrolo[1′,2′:4,5]pyrazino[2,3-c]pyridazin-8-yl)-5,6-dihydropyridine-1(2H)-carboxylate]	4.30 to 6.00
O=c1[nH]c2nnc(-c3ccccc3O)cc2n2cc(C3CCNCC3)cc12 [I-125, 2-(2-hydroxyphenyl)-8-(piperidin-4-yl)pyrrolo[1′,2′:4,5]pyrazino[2,3-c]pyridazin-6(5H)-one]	4.30 to 6.00
CC(=O)n1ncc2c(-c3cnn(C)c3)c(N)ncc21 [I-126, 1-[5-amino-4-(1-methylpyrazol-4-yl)pyrazolo[3,4-c]pyridine-1-yl]ethanone]	< 3.70
Oc1ccccc1-c1ccc(NC2CCNCC2)nn1 [I-127, 2-[6-(4-piperidylamino)pyridazin-3-yl]phenol]	4.30 to 6.00
Oc1ccccc1-c1cc(N2CCNCC2)c(NC2COC2)nn1 [I-128, 2-[6-(oxetan-3-ylamino)-5-piperazin-1-yl-pyridazin-3-yl]phenol]	3.70 to 4.29
CC(=O)Nc1cnc(N)c(-c2cnn(C)c2)c1C [I-129, N-[6-amino-4-methyl-5-(1-methylpyrazol-4-yl)-3-pyridyl]acetamide]	< 3.70
